Emax, IC50 and MI % data for three molecules are collected here from US12054510B2, “2′ and/or 5′ amino-acid ester phosphoramidate 3′-deoxy adenosine derivatives as anti-cancer compounds” (Nucana plc, priority 2014, dated 2024).

Experiment in all cases: Solid tumour and haematological malignancy assay (CellTiterGlo)
Format in all cases: cell-based
A general note: ATP-based viability assays read luminescence as a measure of living cells.

In one assay the test system is RL. The following applies: Homo sapiens, 72 h, read-out: MI %.
For another assay, the system named is CCRFCEM. The following applies: Homo sapiens, CCRF-CEM, 72 h. As to the method: In vitro viability assay were performed to assess the effects of compounds on cell viability in selected cell lines over 72 hr using the CellTiterGlo (CTG, Promega-G7573) assay. […] Cell viability assay using CellTiterGlo in 96-well plate were performed. Compound treatment 72 hrs, standard growth conditions, duplicates. Compounds were dissolved to 40 mM with thawed 100%. […] After compounds were dissolved in media, media containing compounds were warmed to 37° C. in incubator and then compounds in media were added to cell plates (50 μl+50 μl) in duplicates. […] All compound solubilities were checked and recorded again, then the plates were transferred to CO2 tissue culture incubator immediately and incubated for 3 days. DMSO final concentration is 0.5%.

The subject of a further assay is NCI-H929. To be noted: Homo sapiens, NCI-H929, 72 h, read-out: MI %.
In a further assay the test system is Z138. To be noted: 72 hr.

As a reminder, the IC50 is the concentration at which inhibition is half-maximal. Take `C[C@H](NP(=O)(OC[C@@H]1C[C@@H](O)[C@H](n2cnc3c(N)ncnc32)O1)Oc1cccc2ccccc12)C(=O)OCc1ccccc1` (stereo partly drawn) [B, (2S)-benzyl 2-(((((2S,4R,5R)-5-(6-amino-9H-purin-9-yl)-4-hydroxytetrahydrofuran-2-yl)methoxy)(naphthalen-1-yloxy)phosphoryl)amino)propanoate]: the Emax in the assay with RL stood at 96%. Further, the IC50 in the assay on CCRFCEM (read-out: IC50 (absolute IC50)) lay in the range of 100 to 5000 nM.
`COC(=O)C(C)(C)NP(=O)(OC[C@@H]1C[C@@H](O)[C@H](n2cnc3c(N)ncnc32)O1)Oc1cccc2ccccc12` (stereo partly drawn) [E, Methyl 2-(((((2S,4R,5R)-5-(6-amino-9H-purin-9-yl)-4-hydroxytetrahydrofuran-2-yl)-methoxy)(naphthalen-1-yloxy)phosphoryl)amino)-2-methylpropanoate]: the Emax in the assay with NCI-H929 was 98%; in the assay on RL it was 88%. In the assay on Z138, this molecule came in with an MI % of 93%.
In turn, `CCOC(=O)CCc1ccccc1OP(=O)(N[C@@H](C)C(=O)OCc1ccccc1)OC[C@@H]1C[C@@H](O)[C@H](n2cnc3c(N)ncnc32)O1` (stereo partly drawn) [F, (2S)-benzyl 2-(((((2S,4R,5R)-5-(6-amino-9H-purin-9-yl)-4-hydroxytetrahydrofuran-2-yl)methoxy)(2-(3-ethoxy-3-oxopropyl)phenoxy)phosphoryl)amino)propanoate] came in with an MI % in the assay on Z138 of 76%. In addition, the Emax with CCRFCEM (read-out: MI %) was determined as 101%.
